“Also recorded” adds a separate entry of the source.
Columns and labels:
H. pylori [1] = test: Anti H. pylori screening by disc diffusion susceptibility assay; assay type: cell-based, Helicobacter pylori; settings: 72 h; for Inhibition zone diameter (score): 100 and 200 mg/disc (so in the source)
Outline: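 Clinical strains HP001, HP002 and ATCC 700392, 43504, 49503 (10^8 CFU/mL) spread on supplemented BHI agar; 5 mm discs loaded with 100 and 200 […] compound in ethanol or DMSO. Zones read after 72 h microaerophilic growth at 37 °C; scored + (10-20 mm), ++ (20-30 mm), +++ (>30 mm), Nil <10 mm.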

H. pylori ATCC 43504 = test: Transmission electron microscopy of morphological transformation; assay type: cell-based, Helicobacter pylori; settings: 24 h
Excerpt: The morphological alteration of H. pylori cells (ATCC® 43504) exposed to various concentrations of CPP-1 was further examined using transmission electron microscopy (Dai et al., 2005). […] Samples were dehydrated, embedded in SPUR, sections cut and applied to copper grids. The grids were contrasted with uranyl acetate and lead citrate and the sections were examined on a transmission electron microscope.

gastric parietal cell = test: Histamine-stimulated acid secretion in gastric parietal cell ([14C]-aminopyrine uptake ratio); assay type: cell-based, rabbit; settings: histamine 0.1 mM
Procedure: Dose-dependent inhibition of histamine-stimulated aminopyrine (AP) uptake ratio in parietal cell suspension after CPP-1 treatment was measured.
Parietal cells (PC) were isolated from New Zealand White rabbits (weighing ^˜2.5 kg) essentially according to Berglindh (1984) and as modified by Mazzeo et al. (1988). The PC preparations were nearly 90% pure and viable. The effect of CPP-1 on basal and histamine stimulated acid secretion in parietal cells was examined as follows. The PC suspension was incubated for 10 min at 37° C. with gentle stirring and continuous slow top gassing with oxygen. The [^14C]-aminopyrine (115 mCi/mmole) was added to the suspension at […], and incubation was continued for another 10 min. One-milliliter aliquot of PC (^˜5×10^6 cells) was added to various concentrations of CPP-1 in the presence and the absence of histamine (0.1 mM) and incubated for 20 min at 37° C. with slow shaking and oxygen top gassing. At the end of the incubation, the PC suspensions were centrifuged, supernatant carefully aspired off and the pellets solubilized in scintillation fluid containing Triton X-100. The resulting solution was counted in a liquid scintillation counter. The aminopyrine accumulation was determined as the ratio of intra- to extracellular aminopyrine according to Mazzeo et al. (1988).

[2] = tested on: H. pylori clinical strain HP001; test: Acridine orange fluorescence microscopy of morphological transformation; assay type: cell-based, Helicobacter pylori; settings: 24 h
Procedure: Acridine orange fluorescence microscopic evidence is provided. The details of experimental procedures are provided under Experiment 9.
For the purpose of fluorescence staining, a bacterial smear was prepared, fixed with methanol for 2 min, stained with 0.1% acridine orange solution for 2-3 min, rinsed thoroughly with distilled water (Haqqani, 2001) and observed under fluorescence microscopy using 1-3 filter (emission wavelength 510 nm). The live organism appeared as orange color in the dark background and the non-viable cells as green (Shirai et al., 2000).

H. pylori [3] = test: Time kill kinetic analyses in biphasic culture; assay type: cell-based, Helicobacter pylori
Swiss albino mice = test: Acute toxicity evaluation in mice; assay type: in vivo; settings: up to 0.5 g/kg body weight orally, 15 days observation
Excerpt: Five animals of Swiss albino mice strain were used for this purpose. The dosage up to 0.5 g/kg body weight given orally per mice and the animals were kept for 15 days under observation. It was observed that the mice were not affected at the dose level of 0.5 g/kg body weight of CPP-1.

Structure (SMILES): O=c1cc(-c2ccccc2)oc2cc(OCCCCCCN3CCCCC3)cc(O)c12 [CPP-1, 5-Hydroxy-2-phenyl-7-(6-piperidin-1-yl-hexyloxy)-chromen-4-one]
- Inhibition zone diameter (score) (H. pylori [1]; ATCC standard strain 43504): ++ (20-30 mm as ^++)
- Inhibition zone diameter (score) (H. pylori [1]; ATCC standard strain 49503): +++ (that of >30 mm as ^+++)
- Inhibition zone diameter (score) (H. pylori [1]; ATCC standard strain 700392): ++ (20-30 mm as ^++)
- zone of inhibition at 100 µg/disc (H. pylori [1]; Helicobacter pylori, 100 and 200 μg/disc, majority of the strains, read-out: Activity class by inhibition zone diameter): > 30 mm
- Inhibition zone diameter (score) (H. pylori [1]; clinical strain HP001): ++ (20-30 mm as ^++)
- Inhibition zone diameter (score) (H. pylori [1]; clinical strain HP002): +++ (that of >30 mm as ^+++)
- morphological alteration (transmission electron microscope) (H. pylori ATCC 43504; 6.25 μg/mL): only few bacteria with intact shape and structure
- morphological alteration (transmission electron micrographs) (H. pylori ATCC 43504; 6.25 or […]): induced swelling and vacuole like structures in the cytoplasm of H. pylori cells
- morphological alteration (transmission electron microscope) (H. pylori ATCC 43504; […]): most cells were found to be progressively swollen and destroyed
- IC50 (gastric parietal cell; Oryctolagus cuniculus, rabbit gastric parietal cell): ~15 µg/mL
- activity relative to cimetidine, histamine-stimulated secretion (gastric parietal cell): more active than cimetidine
- fold less potent than omeprazole in inhibiting histamine-stimulated secretion (gastric parietal cell): about 5 fold
- morphological alteration (fluorescence microscopy) ([2]; 3.125 mg/mL (so in the source)): resembled almost like control with some deformation
- morphological alteration (fluorescence microscopy) ([2]; 6.25 and […] (so in the source)): progressively deteriorating cell population leading to more of non-viable cells (green fluorescence) and coccid formation
- decrease in cell count within 36 h (H. pylori [3]; ATCC 43504, 0.5×MIC (3.125 μg/mL)): f-log decrease in cell count
- time to complete killing (H. pylori [3]; ATCC 43504, 1×MIC (6.25 μg/mL)): ≤ 36 h
- time at which killing/inhibition became evident (H. pylori [3]; HP001, biphasic culture): ≤ 6 h
- killing at MIC dose (1×MIC) (H. pylori [3]; HP001, up to 36 h): not high enough to produce total bactericidal activity
- mortality (Swiss albino mice): did not show any mortality; also recorded: No mortality and behavioral abnormality was noted
